Test results taken from ChEMBL document CHEMBL3286251, “Treatment of Immunological or Inflammatory Disorders with ITK Kinase Inhibitors” (ACS Med Chem Lett, 2014).

Target: T1, Tyrosine-protein kinase ITK/TSK (Homo sapiens, UniProt Q08881)
T1 sequence (Q08881 whole entry): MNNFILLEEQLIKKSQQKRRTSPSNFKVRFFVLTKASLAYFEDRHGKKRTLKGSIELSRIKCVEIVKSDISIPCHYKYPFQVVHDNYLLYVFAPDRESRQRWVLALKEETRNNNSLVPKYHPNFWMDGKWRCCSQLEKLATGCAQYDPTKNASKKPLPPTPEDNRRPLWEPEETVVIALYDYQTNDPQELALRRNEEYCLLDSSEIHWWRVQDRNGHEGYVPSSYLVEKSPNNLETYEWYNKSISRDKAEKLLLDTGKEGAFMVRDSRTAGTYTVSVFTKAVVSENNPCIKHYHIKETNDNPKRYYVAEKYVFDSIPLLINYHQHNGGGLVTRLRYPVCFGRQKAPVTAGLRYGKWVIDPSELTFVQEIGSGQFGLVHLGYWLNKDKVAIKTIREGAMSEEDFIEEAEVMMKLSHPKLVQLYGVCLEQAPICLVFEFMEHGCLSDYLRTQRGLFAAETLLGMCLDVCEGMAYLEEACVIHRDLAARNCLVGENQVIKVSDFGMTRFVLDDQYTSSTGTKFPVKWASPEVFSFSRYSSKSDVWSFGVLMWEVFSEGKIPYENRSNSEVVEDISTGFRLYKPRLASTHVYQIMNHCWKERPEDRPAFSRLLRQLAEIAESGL
Assay: Inhibition of ITK (unknown origin) using Acetyl-EFPIYDFLPAKKK-NH2 peptide as substrate after 1 hr by LC-MS analysis

- Ki: < 0.1 nM
Compound: CC12Cc3[nH]nc(C(=O)Nc4cnn(C(CS(C)(=O)=O)c5cccnc5)c4)c3CC1C2 (stereo unspecified)
